From BigSolDB 2.1

Conditions: in water

For `NCCS(=O)(=O)O`, the solubility (mole fraction) (278.15 K) was 0.00667, the solubility (mole fraction) (283.15 K) was 0.00809 and the solubility (mole fraction) (288.15 K) was 0.0101. For the same molecule, the solubility (mole fraction) (293.15 K) was 0.0121, the solubility (mole fraction) (298.15 K) was 0.0141 and the solubility (mole fraction) (303.15 K) was 0.0172. The solubility (mole fraction) (308.15 K) was 0.0202, the solubility (mole fraction) (313.15 K) was 0.0232 and the solubility (mole fraction) (318.15 K) was 0.0264. It also gave a solubility (mole fraction) (323.15 K) of 0.0318.
